± gives the expanded uncertainty stated by the source.
Conditions: Crystal; visual observation

Row | Normal melting temperature | SMILES
1 | 269.50 ± 0.5 °C | O=c1cc(-c2ccccc2)c2cc(O)c(O)cc2o1 [6,7-dihydroxy-4-phenylcoumarin]
2 | 211.50 ± 0.5 °C | COc1cc2oc(=O)cc(-c3ccccc3)c2cc1O [6-hydroxy-7-methoxy-4-phenylcoumarin]
